Data from patent US20070072815A1, “Methods and kits to increase the efficiency of oligonucleotide-directed nucleic acid sequence alteration” (priority 2004, published 2007).
Entries after “also recorded” stand apart in the source; their conditions may differ.

Legend:
[1] = test system: α-galactosidase A (GLA) activity in Fabry's cell line DMN-1; assay: GLA activity in Fabry's cells after ODSA; assay type: cell-based, human; conditions: cells synchronized by DTB, 500 μM ddC
Description: (§1) Cell line DMN-1, a human fibroblast cell line derived from a human patient with Fabry's disease, is obtained from the National Institutes of Health (NIH). These cells are used to measure the efficiency of correction of a mutant allele of α-galactosidase A (GLA) using methods of the present invention. The specific disease-causing mutation in the Fabry's cell line used herein is A143P, caused by a G→C mutation in the gene. See Branton et al., Medicine (Baltimore) (2002) 81(2): 122-38.
(§2) All four oligonucleotides are used to effect ODSA substantially as described in Example 1, with the exception that cells are transfected with oligonucleotides, rather than electroporated. Oligos are added at 5 μg, 10 μg or 30 μg per reaction. After ODSA is performed, cells are cultured and assayed for GLA activity according to the method of Brady, as described in Medin et al., Proc. Natl. Acad. Sci. (USA) (1996) 93:7917-22, the disclosure of which is incorporated herein by reference in its entirety. The GLA activity is used as a measure of gene correction by comparing the activities in treated versus untreated cultures. The correction efficiency is subsequently confirmed by sequencing of the locus of mutation in a number of treated cells.
[…] Unlike the experiments involving correction of eGFP in DLD-1-1 cells described in Example 1, however, certain of the agents (VPA, caffeine, TSA) in the experiments in this example are not added before transfection, but are instead added only after transfection, during the recovery period.
(§3) The means of introducing oligonucleotide into the target cells also differs from previous examples, with transfection in the presence of the transfection enhancing agent FuGENE™ 6 (FG) (Roche Diagnostics Corp., Indianapolis, Ind., USA) being used rather than electroporation. Each transfection reaction includes 100 μl of target cells and 12 μl of FG unless otherwise indicated, despite the fact that FG is not explicitly listed for each datapoint in the relevant figures. Otherwise the procedures used in the DLD-1-1 experiments and the Fabry's experiments are similar.
The results of a further series of experiments are shown at FIG. 15D, where the data are presented as GLA activity as nanomolar (nM) concentration of the product of the GLA assay generated per hour per unit protein concentration (as are the data in FIGS. D and E).

DLD-1-1 cells [2] = assay: Cell viability / cell death by propidium iodide FACS
Procedure: Flow cytometry analysis: eGFP fluorescence of corrected cells is measured by a Becton Dickinson FACSCalibur™ flow cytometer (Becton Dickinson, Rutherford, N.J.). Cells are harvested 48 hrs after electroporation and resuspended in FACS buffer (0.5% BSA, 2 mM EDTA, 2 μg/ml propidium iodide in PBS). More specifically, the program is set for the appropriate cell size (forward scatter versus side scatter) and the population of single-cells is gated for analysis. Using the negative control (minus PI, minus GFP) the background fluorescence was set by positioning the cells in the 10^1 decade of the dot plot by adjusting the voltage for FL1 (GFP) and FL2 (PI). The composition is then set for multi-fluorochrome experiments using a GFP control sample containing no PI and increasing the compensation to bring the signal toward the FL1 parameter. Finally, the last control, PI and no GFP is used to increase the compensation to bring the signal toward the FL2 parameter. Samples of 50,000 cells each are analyzed and those cells being GFP positive and PI negative are scored as corrected cells.
For cells that were not previously treated with caffeine, caffeine is added to the media to a final concentration of 4 mM in the 60 mM dish immediately following electroporation (the “recovery phase”). For cells that were pre-treated with caffeine, there is no addition of caffeine during the recovery phase. After 24 hrs of recovery, the media is changed and caffeine (4 mM final concentration) is added back to the culture. After 48 hrs of recovery, the samples are read by FACS: eGFP fluorescence reflects gene alteration (correction), and propidium iodide (PI) staining reflects cellular viability.

[3] = test system: mutant eGFP gene in DLD-1-1 cells; assay: eGFP gene correction (oligonucleotide-directed sequence alteration) in DLD-1-1 cells, FACS readout; assay type: cell-based; conditions: for correction efficiency: cells synchronized by double thymidine block, then 10 mM thymidine 24 hours
Procedure: Cell line and culture conditions: DLD-1 cells are obtained from ATCC (American Type Cell Culture, Manassas, Va.). DLD-1 integrated clone 1 (DLD-1-1) is obtained by integration of the vector pEGFP-N3 containing a single point mutation (TAG) in the eGFP gene, as described in copending U.S. patent application Ser. No. 10/986,418, filed Nov. 10, 2004 (“Mammalian Cell Lines for Detecting, Monitoring, and Optimizing Oligonucleotide-Mediated Chromosomal Sequence Alteration”). Cells are grown in RPMI 1640 medium with 2 mM glutamine, 4.5 g/L glucose, 10 mM HEPES, 1 mM sodium pyruvate and supplemented with 10% FBS. Cells are maintained at 5% CO2, 37° C. and under selection in 200 μg/ml G418 (Gibco, Invitrogen Co., Carlsbad, Calif.).
eGFP gene correction: Cells grown in complete medium supplemented with 10% FBS are trypsinized and harvested by centrifugation. The cell pellet is resuspended in serum-free medium at a density of 1×10^6 cells/100 μl and transferred to a 4 mm gap cuvette (Fisher Scientific, Pittsburgh, Pa.). The oligonucleotide is then added at a concentration of 4 μM and the cells are electroporated (LV, 250V, 13 msec, 2 pulses, 1 second interval) using a BTX ECM830 apparatus (BTX, Holliston, Mass.). The cells are then transferred to a 60 mm dish containing fresh medium supplemented with 10% FBS and incubated for 48 hrs at 37° C. before harvesting for FACS analysis.
The percentage of converted cells in a whole population is then calculated by CellQuest™ (Becton Dickinson) and GFP/PI programs. The correction efficiency is determined by dividing the number of eGFP positive cells by the number of cells analyzed in each experiment (usually 50,000 cells). Each clone is tested three times to determine the standard deviation of the correction efficiency, with standard deviation calculated using Microsoft Excel.
The experimental strategy involves the introduction of oligonucleotides into DLD-1-clone 1 cells by electroporation followed by phenotypic readout of the corrected eGFP gene, 48 hours later. The correcting oligonucleotide (EGFP3S/72NT) is 72 bases in length (72-mer), complementary to the non-transcribed strand of the mutant eGFP gene but designed to create a single mismatch in the third base of codon 67 (see FIG. 1A). It directs conversion of a TAG→TAC codon which enables phenotypic expression of eGFP, which can be detected by FACS. FIG. 1B outlines the sequence of the target gene, the 72-mer and a nonspecific 74-mer used as a control.
Oligonucleotide-Directed Sequence Alteration: The resulting synchronized populations of cells, and asynchronous controls, are grown in complete medium supplemented with 10% FBS and trypsinzed and harvested by centrifugation at 1500 rpm for 5 minutes. The cell pellet is resuspended in fresh serum-free medium at a density of 2×10^6 cells/100 μl. The entire cell suspension is mixed with 20 μg of EGFP/72NT and transferred into a 4 mm gap cuvette (Fisher Scientific, Pittsburgh, Pa., USA) followed by electroporation with two 250V pulses, each 13 ms in duration, with one second between pulses, unipolar.
Cells are incubated at room temperature for 30 min. […] Frequency of converted cells are calculated by CellQuest™ and GFP/PI programs.
Double Thymidine Block: Cells are synchronized in G1 or at the G1/S border by a double thymidine block. Twenty-four hours prior to the addition of any agent (HU, etc.), cells are plated at a density of 0.5×10^6 cells per 100 mm dish, followed by incubation in 2 mM thymidine (Sigma) for 16 hrs, washed and released in fresh medium for 10 hrs, then incubated in 2 mM thymidine for an additional 15 hrs.
FACS is then used to analyze 50,000 cells from each population to determine the percentage of cells expressing functional eGFP, as described in Example 1.

DLD-1-1 cells [4] = assay: Cell cycle analysis (DNA content by FACS), cells in S phase; assay type: cell-based
Procedure: (§4) For cell cycle analysis, 1×10^6 cells are plated 24 hrs before the treatment with drugs and after 24 hrs of treatment, cells are trypsinized, resuspended in 300 μl cold PBS and fixed by adding 700 μl cold ethanol. Cells are then resuspended in 1 ml of PBS containing 500 µg/ml RNaseA and […] propidium iodide and analyzed for DNA content.
The effect of cell cycle on the efficiency of ODSA is assessed by synchronizing a population of DLD-1-1 cells with mimosine, which arrests cells in early S phase, and serum starvation. Cells are seeded at a density of 0.8×10^6 per 100 mm dish, attached for 20 hours and then cultured in RMPI-1640 medium containing 0.2% fetal bovine serum (FBS). These cells are grown for 48 hours followed by treatment with 0.1 mM mimosine (Sigma, St. Louis, Mo., USA) for 20 hours. Cell are washed twice with PBS and released at various times into fresh medium complemented with 10% FBS before electroporation. Cells are rinsed once with PBS, trypsinized and harvested by centrifugation and resuspended in PBS containing 10 μg/ml propidium iodide, 0.03% Triton-100 and 1 mg/ml RNase. Cells are incubated at room temperature for 1 hour before the measurement of DNA content by FACSCalibur™ flow cytometer. The percentage of cells at various stages of the cell cycle is determined by ModFit L™ software (Verity Software House, Inc., Topsham, Me., USA).
(§5) The resulting cells are then either analyzed by FACS, or the percentage of cells in S phase is determined by BrdU incorporation. FIG. 8 presents the results of both sets of experiments.

DLD-1-1 cells [5] = assay: BrdU incorporation (actively replicating forks); assay type: cell-based; conditions: 24 hour treatment; 500 μM ddC, ddI or AraC (FIG. 17B)
Procedure: as §4, §5
As stated above, the lack of stimulation observed in cells treated with AraC could be explained by the reduced number of cells passing through S phase or the absence of actively replicating forks. If true, we might predict that a rise in the gene repair frequency would appear if the cells are released from the AraC block and replication forks are allowed to restart prior to the electroporation of the oligonucleotide. We test this prediction by treating the cells with AraC for 24 hrs and then releasing them by washing out the drug at specific times. We measure the level of BrdU incorporation at the time of electroporation and evaluate the frequency of correction 48 hrs later.

DNA of DLD-1-1 cells = assay: Pulsed-field gel electrophoresis of DNA damage (double strand breaks); assay type: cell-based; conditions: 0.75 μM bleomycin or 0.2 μM MMS, 24 hours
Procedure: The cells are released by trypsinization and melted in the agarose inserts. The agarose inserts are incubated in 0.5M EDTA—1% N-laurosylsarcosine—proteinase K (1 mg/ml) at 50° C. for 48 hrs and then washed four times in TE buffer prior to loading on a 1% agarose gel (Pulse-Field Certified Agarose, Bio-Rad, Hercules, Calif.) and DNA separation by pulsed-field gel electrophoresis is carried out for 24 hrs (Bio-Rad, 120° field angle, 60 to 240s switch time, 4 V/cm). The gel is subsequently stained with ethidium bromide and analyzed with AlphaImager™ 2200. (Alpha Innotech Corp., San Leandro, Calif.).
The effects of MMS and bleomycin on oligonucleotide-directed gene alteration are determined as follows. DLD-1-1 cells are seeded in 100 mm dishes at 2×10^6 cells per plate and immediately treated with 0.2 μM MMS or 0.75 μM bleomycin. The cells are then grown for 24 hours, until approximately 50% confluent, and washed twice with PBS. A portion of each population of cells is removed for DNA analysis by pulsed-field electrophoresis, as described in Example 1. The correcting oligo EGFP/72NT (10 μg) is then added and the cells are electroporated as in Example 3. Cells are then analyzed to determine the percentage of cells with corrected eGFP genes as described in Example 3.

[6] = test system: mutant eGFP gene in DLD-1-1 cells; assay: eGFP gene correction (oligonucleotide-directed sequence alteration) in DLD-1-1 cells, FACS readout; assay type: cell-based; conditions: 0.2 μM MMS 24 hours before electroporation, 10 μg oligo
[7] = test system: mutant allele (A143P) of α-galactosidase A (GLA) in Fabry's cell line DMN-1; assay: Correction efficiency of mutant GLA allele in Fabry's cells; assay type: cell-based, human; conditions: VP16 1-50 μM; thymidine 2-50 mM; with or without correcting oligonucleotide
Description: as §1, §2
As in the previous examples, target cells are treated with HU, VP16 or CPT prior to transfection with the correcting oligonucleotide. Unlike the experiments involving correction of eGFP in DLD-1-1 cells described in Example 1, however, certain of the agents (VPA, caffeine, TSA) in the experiments in this example are not added before transfection, but are instead added only after transfection, during the recovery period.
as §3
The same experiment as described with respect to FIG. 15A is repeated in the presence of various agents and treatments to evaluate whether embodiments of the present invention can increase gene alteration (in this example, correction) efficiency. […] Bars represent the correction efficiencies observed in the various experiments. Unless otherwise indicated, all experiments include 10 μg of 49T/gg in addition to any other agent used to treat the cells.

## Nc1ccn([C@H]2CC[C@@H](CO)O2)c(=O)n1 [ddC, 2′3′-dideoxycytidine]
[1]
  increase of GLA activity compared with untreated cells: approximately two-fold; also recorded: doubles DLA activity
DLD-1-1 cells [2]; ddC levels higher than 750 μM (data not shown)
  toxicity: cellular toxicity
[3]; cells treated with ddC alone (FIG. 20)
  correction levels: 2.9%
[3]; ddC 24 hrs before electroporation, 500-750 μM
  effect on correction efficiency (increase): more than two-fold; also recorded: approximately two- to three-fold; also recorded: dose-dependent increase
DLD-1-1 cells [4]; 24 hour treatment, 500 μM ddC, ddI or AraC (FIG. 17A)
  cells in S phase: 70%
DLD-1-1 cells [5]
  BrdU uptake (cells actively incorporating DNA bases): 71.8%

## COS(C)(=O)=O [MMS, methyl methanesulfonate]
DLD-1-1 cells [2]; 0.2 μM MMS
  effect on cell death: Cell death is not increased
DNA of DLD-1-1 cells
  DNA damage: effect DNA damage
[6]
  effect on correction efficiency: more than doubles the correction efficiency; also recorded: doubles correction efficiency

## Cc1cn([C@H]2C[C@H](O)[C@@H](CO)O2)c(=O)[nH]c1=O [thymidine]
[3]; 1 mM HU or 10 mM thymidine, DTB synchronized vs asynchronous
  correction efficiency in synchronized cells relative to asynchronous cells: over seven times
[3]; 2 mM thymidine 16 hrs, release 10 hrs, 2 mM thymidine 15 hrs, no other agent
  effect of synchronization by double thymidine block on correction efficiency: increases correction efficiency
[3]; 10 mM thymidine 24 hours
  effect on correction efficiency in asynchronous cells: does not enhance correction efficiency
[3]
  correction efficiency: 7.5%
[3]; listed as Thymidine
  correction efficiency: over 7%
DLD-1-1 cells [4]; after double thymidine block
  proportion of cells in S phase: 1.5%
[7]
  effect on correction efficiency: little effect on correction efficiency

## bleomycin
DNA of DLD-1-1 cells
  DNA damage: effect DNA damage
